Data as given in US8530380B2 (priority 1997, dated 2013).

Test system: Phytophthora infestans
Format: in vivo
Conditions: single active ingredient, 3.1 ppm in the spray liquor; tomato plants infected next day, evaluated after 6 days

| SMILES | Efficacy in % of the untreated control [%] |
| --- | --- |
| O=C(Nc1ccccc1-c1ccc(F)cc1)c1cccnc1Cl [Compound I.1] | 0 |
| COCC(=O)N(c1c(C)cccc1C)C(C)C(=O)OC (centres unmarked) [Compound IV.3, metalaxyl] | 0 |
